In publication PMC5799700, “Screening for PPAR Non-Agonist Ligands Followed by Characterization of a Hit, AM-879, with Additional No-Adipogenic and cdk5-Mediated Phosphorylation Inhibition Properties” (Frontiers in Endocrinology, 2018):
Entries after “also recorded” stand apart in the source; their conditions may differ.

Key:
PPARα = molecular target: T1, PPARα (Homo sapiens, UniProt Q07869); experiment: Isotype specificity transactivation assay, GAL4-PPARα-LBD reporter gene; assay type: cell-based; details: 293T cells, ligands 1 μM, compared with full agonist
T1 construct: using a GAL4-PPARα-LBD (A) or GAL4-PPARβ-LBD (B) reporter gene; expressed in transfected cells; host or cells: HEK 293T
T1 sequence (Q07869 239-466 limits assumed): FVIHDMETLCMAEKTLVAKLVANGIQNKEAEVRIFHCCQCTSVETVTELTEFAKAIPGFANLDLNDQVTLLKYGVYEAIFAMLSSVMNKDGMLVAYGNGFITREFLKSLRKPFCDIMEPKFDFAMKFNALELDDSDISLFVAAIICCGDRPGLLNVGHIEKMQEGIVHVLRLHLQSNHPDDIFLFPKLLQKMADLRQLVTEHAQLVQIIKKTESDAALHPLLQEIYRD
Method: (§1) 293T (ATCC® CRL-3216™) cells were cultured in Dulbecco’s Modified Eagle’s Medium (DMEM, Gibco®) supplemented with 10% (v/v) fetal bovine serum, 50 U/mL penicillin, and […] streptomycin, at 37°C, and humidified atmosphere of 5% CO2. For transactivation assays, cells were seeded in 24-well plates (density of 2.0 × 10^5 cells/well), and transiently transfected with Lipofectamine® 2000 (Invitrogen) and 0.5 μg of the following plasmids: pRL-TK, a transfection control, which express Renilla reniformis luciferase constitutively; pGRE-LUC, which contains responsive element for GAL4 protein followed by reporter gene of firefly luciferase; pBIND-PPARγ, a chimeric protein composed by GAL4-DBD and PPARγ-LBD, under control of the cytomegalovirus promoter (CMV), in a proportion of 1.5 μg DNA:2 μL of Lipofectamine. As negative control, empty BlueScript plasmid was used instead of pBIND-PPARγ. […]
(§2) Four hours after transfection, the culture medium was exchanged to DMEM plus 10% FBS Charcoal stripped broth and 1 μM of each tested compound, Rosi or 1% DMSO was added to each well. […] After 24 h of treatment, reporter gene expression was measured with Dual-Luciferase® Reporter (DLR™) Assay System (Promega), according to manufacturer’s instructions in a GloMax-Multi + Detection System (Promega). […]

PPARγ [1] = molecular target: T2, PPARγ (Homo sapiens, UniProt P37231); experiment: Cell transactivation assay, GAL4-PPARγ-LBD reporter gene; assay type: cell-based; details: 293T cells, up to 0.1 mM
T2 construct: a chimeric protein composed by GAL4-DBD and PPARγ-LBD; expressed in transfected cells; host or cells: 293T (ATCC CRL-3216)
T2 sequence (P37231 238-503 limits assumed): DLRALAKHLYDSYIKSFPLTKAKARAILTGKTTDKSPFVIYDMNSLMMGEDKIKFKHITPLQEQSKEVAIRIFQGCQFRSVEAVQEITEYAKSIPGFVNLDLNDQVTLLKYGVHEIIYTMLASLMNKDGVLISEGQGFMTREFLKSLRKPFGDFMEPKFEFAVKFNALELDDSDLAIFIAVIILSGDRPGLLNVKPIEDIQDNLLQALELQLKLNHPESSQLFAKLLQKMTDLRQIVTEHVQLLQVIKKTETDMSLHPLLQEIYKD
Method: For transactivation assays, cells were seeded in 24-well plates (density of 2.0 × 10^5 cells/well), and transiently transfected with Lipofectamine® 2000 (Invitrogen) and 0.5 μg of the following plasmids: pRL-TK, a transfection control, which express Renilla reniformis luciferase constitutively; pGRE-LUC, which contains responsive element for GAL4 protein followed by reporter gene of firefly luciferase; pBIND-PPARγ, a chimeric protein composed by GAL4-DBD and PPARγ-LBD, under control of the cytomegalovirus promoter (CMV), in a proportion of 1.5 μg DNA:2 μL of Lipofectamine. As negative control, empty BlueScript plasmid was used instead of pBIND-PPARγ. For isotype specificity transactivation assay, cells were seeded in 96-well plates (density of 4.0 × 10^4 cells/well) and transfected with pRL-TK; pGRE-LUC and pBIND-PPARα; and pBIND-PPARβ.
Four hours after transfection, the culture medium was exchanged to DMEM plus 10% FBS Charcoal stripped broth and 1 μM of each tested compound, Rosi or 1% DMSO was added to each well. In dose–response experiments, concentration of compounds was increased from 0.01 to 0.1 mM. After 24 h of treatment, reporter gene expression was measured with Dual-Luciferase® Reporter (DLR™) Assay System (Promega), according to manufacturer’s instructions in a GloMax-Multi + Detection System (Promega). […]

PPARγ LBD [2] = molecular target: T3, PPARγ LBD (Homo sapiens, UniProt P37231); experiment: Thermal shift assay (TSA), SYPRO Orange; assay type: binding; details: PPARγ 4 μM, threefold ligand excess (12 μM)
T3 construct: construction (isoform PPARγ1), encoding AAs 207–477, inserted in pET 28a (+); made in house; host or cells: Escherichia coli BL21 (DE3)
T3 sequence (P37231 207-477 isoform P37231-2): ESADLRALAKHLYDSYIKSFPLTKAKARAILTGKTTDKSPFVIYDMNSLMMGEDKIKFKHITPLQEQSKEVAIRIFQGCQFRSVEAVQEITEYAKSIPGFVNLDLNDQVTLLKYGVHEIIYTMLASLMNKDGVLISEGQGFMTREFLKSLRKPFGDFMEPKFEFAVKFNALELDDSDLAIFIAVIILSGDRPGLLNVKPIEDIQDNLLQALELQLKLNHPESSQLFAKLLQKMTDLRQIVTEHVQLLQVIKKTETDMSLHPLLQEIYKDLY
Method: Protein thermal unfolding was monitored by measuring the SYPRO® Orange probe (Life technologies) fluorescence. […] Rosi was used as a PPARγ full agonist control and, dimethyl sulfoxide (DMSO), as apo-PPARγ control. TSA was performed in triplicates, in 96-well PCR microplates (Applied Biosystems—Life Technologies), through an RT-PCR device (7500 Real Time PCR System). Samples were heated at 1°C per min, from 10 to 90°C. Fluorescence intensities were plotted as a function of temperature and, the melting temperature (Tm) of the protein unfolding transition was obtained through a Boltzmann model in Origin Pro 8.1 and using an Excel based worksheet (DSF Analysis v3.0.2, ftp://ftp.sgc.ox.ac.uk/pub/biophysics).

PPARβ = molecular target: T4, PPARβ (Homo sapiens, UniProt Q03181); experiment: Isotype specificity transactivation assay, GAL4-PPARβ-LBD reporter gene; assay type: cell-based; details: 293T cells, ligands 1 μM, compared with full agonist
T4 construct: using a GAL4-PPARα-LBD (A) or GAL4-PPARβ-LBD (B) reporter gene; expressed in transfected cells; host or cells: HEK 293T
T4 sequence (Q03181 211-439 limits assumed): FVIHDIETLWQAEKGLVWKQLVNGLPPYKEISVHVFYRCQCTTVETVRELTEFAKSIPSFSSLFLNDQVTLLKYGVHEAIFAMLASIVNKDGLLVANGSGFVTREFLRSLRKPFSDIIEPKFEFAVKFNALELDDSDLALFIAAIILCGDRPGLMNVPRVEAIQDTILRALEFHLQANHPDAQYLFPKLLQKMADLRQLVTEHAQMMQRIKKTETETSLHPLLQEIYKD
Method: as §1, §2

PPARγ LBD [3] = molecular target: T3, PPARγ LBD; experiment: ANS fluorescence quenching ligand-binding assay; details: PPARγ 1 μM, ANS 10 μM, ligand 0.1-60 μM, Hill model, 25°C; read-out: Kd (dissociation constant) from ANS displacement
Method: 8-Anilino-1-naphthalenesulfonic acid fluorescence quenching assay was performed incubating 1 μM of PPARγ with 10 μM of the fluorescent probe ANS for 30 min. Following this, increasing concentrations (0.1–60 μM) of the pre-selected 20 compounds were titrated in protein-ANS solution. […] Fluorescence data were fitted to binding curves using Hill model for dissociation constant (Kd) calculation. All experiments were performed in triplicates and data were processed using the software Origin Pro 8.1.

PPARγ LBD [4] = molecular target: T3, PPARγ LBD; experiment: NanoDSF, intrinsic tryptophan and tyrosine fluorescence; assay type: binding; details: PPARγ 25 μM, ligand 75 μM (3 M excess)
Method: Intrinsic tryptophan and tyrosine fluorescence were measured using NT48 device (NanoTemper), as a more sensitive technology to check protein stability in comparison to TSA. […] The initial fluorescence scan of loaded capillaries was performed at 20°C, monitoring emission wavelength at 330 and 350 nm in order to find the optimal signal range. After this step, samples were subjected to a temperature ramp of 1°C/min from 20 to 90°C and fluorescence was constantly monitored. Data were analyzed and Tm was determined using PR. ThermControl software (NanoTemper).

3T3-L1 cells = experiment: Adipocyte differentiation assay, Oil Red O; assay type: cell-based; details: 1 μM ligand; for Adipocyte differentiation / adipogenesis (in words): Oil Red O staining
Method: 3T3-L1 (ATCC® CRL-3242™) cells were cultured in DMEM (Gibco®) supplemented with 10% (v/v) fetal bovine serum, 50 U/mL penicillin, and […] streptomycin, at 37°C, and humidified atmosphere of 5% CO2. After achieved 70% confluency, cells were trypsinized and seeded in 6-well plates (Corning) at a density of 2.8 × 10^5 cells/well. After 2 days, cells were treated with dexamethasone ([…]) to induce preadipocytes differentiation, and 1 μM of Rosi, 1 μM of AM-879, or 1% DMSO. After treatment, the culture medium was exchanged every 48 h, supplemented with 1 μM of each ligand, for 6 days. In order to measure adipocyte differentiation, fully differentiated 3T3-L1 cells were washed with phosphate-buffered saline (PBS), fixed with 10% formalin (v/v) for 1 h, and then, stained with oil red solution (Oil Red O) (0.3% in isopropanol 60%) for 20 min. After staining, cells were washed with PBS and photographed in Nikon MTS microscope (Nikon). Lipid accumulation was also quantified by Oil Red O absorbance measurement at 520 nm. For this measurement, cells lysis was performed in 200 μL of isopropanol and 4% Igepal solution, and the absorbance of the samples was recorded in a 10-mm cuvette in a spectrophotometer (V-530, Jasco). Data were compared using unpaired t-test.

PPARγ [5] = molecular target: T2, PPARγ; design: method as in PMID 24075729; details: cited from earlier work
[6] = molecular target: T5, CDK5-mediated phosphorylation of PPARγ at serine 273 (Homo sapiens, UniProt P37231); experiment: In vitro phosphorylation assay (ADP-Glo); assay type: biochemical; details: PPARγ LBD 1.2 μM, 5 M excess of ligand, 50 ng CDK5/p35, ATP 10 μM, 1 h
T5 construct: construction (isoform PPARγ1), encoding AAs 207–477, inserted in pET 28a (+); host or cells: Escherichia coli BL21 (DE3) for PPARγ LBD
T5 sequence (P37231 207-477 isoform P37231-2): T3 sequence (P37231 207-477 isoform P37231-2)
Method: Then, protein and ligands were incubated with 50 ng CDK5/p35 (Sigma), for 1 h, at room temperature, in the CDK5/p35 reaction buffer (composition recommended by manufacturer) and in the presence of ATP 10 μM. After reaction, ADP detection was performed by using ADP-Glo™ kinase assay (Promega) following manufacturer’s instructions. Luminesce signal was recorded using GloMax-Multi + Detection System (Promega) microplate luminometer.

[7] = tested on: PPARγ target genes in 3T3-L1 cells; experiment: Gene expression analysis (RT-qPCR) in differentiated 3T3-L1 cells; assay type: cell-based; details: 1 μM ligand, vs DMSO
Method: Total RNA from differentiated 3T3-L1 cells was extracted by RNeasy kit (Qiagen) and cDNAs were synthesized with High-Capacity cDNA Reverse Transcription Kit (ThermoFischer Scientific). Quantitative PCR reactions were performed with SYBR Real Time PCR master mixes (ThermoFischer Scientific) and 50 ng of cDNA, in a 7500 Real Time PCR system (Applied Biosystems). Relative mRNA expression was determined by the ΔΔ-Ct method normalized to GAPDH levels. The sequences of primers used in this study are presented in Table S2 in Supplementary Material.

Row | SMILES | PPARα activation (PPARα) | PPARγ activation (dose-response, in words) (PPARγ [1]) | Tm from TSA (PPARγ LBD [2]) [°C] | PPARβ activation (PPARβ) | Kd (PPARγ LBD [3]) [µM] | Tm from nanoDSF (PPARγ LBD [4]) [°C] | Adipocyte differentiation / adipogenesis (in words) (3T3-L1 cells) | Effect on PPARγ activation (earlier description as possible antagonist) (PPARγ [5]) | Decrease of CDK5-mediated phosphorylation of PPARγ (Ser 273) [6] [%] | Lipid accumulation (Oil Red O absorbance at 520 nm) in comparison with DMSO (3T3-L1 cells; 6 days) [fold] | Adipoq (Adiponectin) relative expression [7] | Cd36 relative expression [7] | Cebpa relative expression [7] | Cfd (Adipsin) relative expression [7] | Lep (Leptin) relative expression [7] | Lpl relative expression [7] | Pparg relative expression [7]
1 | O=C(O)c1ccc(/C=C/C(=O)c2ccc3ccccc3c2)cc1 [P11] | none of them activated | did not activate PPARγ even at the highest concentration; also recorded: did not present any significant change in PPARγ activation | 49.4 ± 0.1 | none of them activated | 3.3 ± 0.7 | 48.0 ± 0.172 | – | – | – | – | – | – | – | – | – | – | –
2 | CN(CCOc1ccc(CC2SC(=O)NC2=O)cc1)c1ccccn1 (stereo not drawn) [Rosiglitazone, rosiglitazone, reference compound] | – | – | – | – | – | – | strongly induced adipogenesis | – | – | – | – | – | – | – | – | – | –
3 | O=C(O)c1ccc(COc2ccccc2C=C2C(=O)c3ccccc3C2=O)cc1 [AM-879, 4-({2-[(1,3-dioxo-1,3-dihydro-2H-inden-2-ylidene)methyl]phenoxy}methyl) benzoic acid] | none of them activated | did not activate PPARγ even at the highest concentration; also recorded: did not present any significant change in PPARγ activation | 49.83 ± 0.01 | none of them activated | 4.5 ± 0.6 | 48.8 ± 0.114 | did not induce a significant increase in adipocyte differentiation | reduced the activation of the receptor | 28 | 1.12 ± 0.13 | slightly reduced levels | slightly reduced levels | did not alter | slightly reduced levels | did not alter | did not alter | did not alter
